Experimental data taken from ChEMBL document CHEMBL5661943, “ASAP - In vitro antiviral effect” (2024).

Key:
Zika virus [1] = assay: EC50 is reported via analysis of immunofluorescence staining. The assay has been performed by Icahn School of Medicine at Mount Sinai.; format: functional, organism-based, Chlorocebus sabaeus, VeroE6/TMPRSS2; settings: Zika virus; for EC90: P-gp concentration 2 uM, P-gp inhibitor Elacidar
dengue virus type 2 [2] = assay: Functional immunofluorescence assay to measure dose dependent changes in antiviral-drug inhibitory efficacy against Dengue virus type 2 Thailand/16681/84 in Vero E6/TMPRSS2 cells (cotreated with P-gp inhibitor, Elacridar). Cells are treated with antiviral candidates that are serially diluted, following infection, cells are fixed. EC50 is reported via analysis of immunofluorescence staining. The assay has been performed by Icahn School of Medicine at Mount Sinai.; format: organism-based, Chlorocebus sabaeus, VeroE6/TMPRSS2; settings: Dengue virus; for EC90: P-gp concentration 2 uM, P-gp inhibitor Elacidar
Zika virus [3] = assay: Functional CPE-based assay to measure dose dependent changes in antiviral-drug inhibitory efficacy against Zika virus MR766 in Vero E6 miRFP670 cells (cotreated with P-gp inhibitor, CP100356). Cells are treated with antiviral candidates that are serially diluted. EC50 is reported via analysis of MTS assay as a readout of CPE. The assay has been performed by KU Leuven.; format: organism-based, Chlorocebus sabaeus, Vero C1008; settings: Zika virus, Vero C1008; for EC90: Baseline response 0 %, Maximum response 100 %, P-gp concentration 500 nM, P-gp inhibitor CP100356
dengue virus type 2 [4] = assay: Functional assay to measure dose dependent changes in antiviral-drug inhibitory efficacy against Dengue virus type 2 New Guinea C in Vero E6 miRFP670 cells (cotreated with P-gp inhibitor, CP100356). Cells are treated with antiviral candidates that are serially diluted, following infection, cells are fixed. EC50 is reported via analysis of fluorescence intensity using high-content imager. The …; format: organism-based, Chlorocebus sabaeus, Vero C1008; settings: Dengue virus; for EC90: P-gp concentration 500 nM, P-gp inhibitor CP100356

What does the source list for O=C(NC[C@H]1CCCO1)[C@H](Nc1ccc2c(c1)CNC2)c1cc(Cl)cc2[nH]ncc12?
EC50 (Zika virus [1]; VeroE6/TMPRSS2): 0.309 µM; EC90 (Zika virus [1]; VeroE6/TMPRSS2, Baseline response 0 %, Hill slope -0.364, Maximum measured 91.96 %, Maximum response 100 %, Minimum measured 21.463 %, R squared 0.587): > 16.7 µM; EC50 (dengue virus type 2 [2]; VeroE6/TMPRSS2): > 16.7 µM; EC90 (dengue virus type 2 [2]; VeroE6/TMPRSS2, Maximum measured 188.503 %, Minimum measured 79.522 %): > 16.7 µM; EC50 (Zika virus [3]): > 50 µM; EC90 (Zika virus [3]; Hill slope 0.096, Maximum measured 37.493 %, Minimum measured 16.803 %, R squared 0.054): > 50 µM; EC50 (dengue virus type 2 [4]; Vero C1008): > 6.25 µM; EC90 (dengue virus type 2 [4]; Vero C1008, Maximum measured 107.029 %, Minimum measured 98.467 %): > 6.25 µM

How did the EC50 (Zika virus [1]; VeroE6/TMPRSS2) turn out when Cn1cc2cc(Cl)cc(C(=O)Nc3ccc4c(c3)CNC4)c2n1 was run?
The EC50 was 0.643 µM.

And the EC90 (Zika virus [1]; VeroE6/TMPRSS2, Baseline response 0 %, Hill slope -0.814, Maximum measured 136.159 %, Maximum response 100 %, Minimum measured 33.863 %, R squared 0.555)?
The EC90 was greater than 5.56 µM.

What about the EC50 (dengue virus type 2 [2]; VeroE6/TMPRSS2) of the same compound?
Its EC50 is greater than 5.56 µM.

What about the EC90 (dengue virus type 2 [2]; VeroE6/TMPRSS2, Maximum measured 98.349 %, Minimum measured 47.733 %) of the same compound?
Its EC90 is greater than 5.56 µM.

And the EC50 (Zika virus [3])?
Its EC50 is 0.514 µM.

What about the EC90 (Zika virus [3]; Hill slope 4.196, Maximum measured 85.26 %, Minimum measured 23.993 %, R squared 0.942) of the same compound?
Its EC90 is greater than 0.781 µM.

And the EC50 (dengue virus type 2 [4]; Vero C1008)?
The EC50 was 0.704 µM.

And the EC90 (dengue virus type 2 [4]; Vero C1008, Baseline response 0 %, Hill slope 0.764, Maximum measured 122.857 %, Maximum response 100 %, Minimum measured 34.33 %, R squared 0.405)?
The EC90 was less than 0.391 µM.

Which EC50 (Zika virus [1]; VeroE6/TMPRSS2) does the source give for O=C(Nc1ccc2c(c1)CNC2)c1cc(C(F)(F)F)cc2[nH]ccc12 here?
The EC50 was greater than 50 µM.

What about the EC90 (Zika virus [1]; VeroE6/TMPRSS2, Maximum measured 116.047 %, Minimum measured 72.993 %) of the same compound?
The EC90 was greater than 50 µM.

What about the EC50 (dengue virus type 2 [2]; VeroE6/TMPRSS2) of the same compound?
Its EC50 is greater than 16.7 µM.

What about the EC90 (dengue virus type 2 [2]; VeroE6/TMPRSS2, Baseline response 0 %, Hill slope -15.878, Maximum measured 193.651 %, Maximum response 148.635 %, Minimum measured 63.423 %, R squared 0.446) of the same compound?
Its EC90 is greater than 16.7 µM.

And the EC50 (Zika virus [3])?
The EC50 was 45.6 µM.

And the EC90 (Zika virus [3]; Hill slope 3.148, Maximum measured 56.87 %, Minimum measured -2.102 %, R squared 0.945)?
The EC90 was greater than 50 µM.

And the EC50 (dengue virus type 2 [4]; Vero C1008)?
The EC50 was greater than 50 µM.

What about the EC90 (dengue virus type 2 [4]; Vero C1008, Baseline response 0 %, Hill slope -0.556, Maximum measured 107.588 %, Maximum response 100 %, Minimum measured 39.301 %, R squared 0.196) of the same compound?
The EC90 was greater than 50 µM.

Which results are given for Cn1cc(CCc2nc3c(C(=O)Nc4ccc5c(c4)CNC5)cc(Cl)cc3[nH]2)cn1?
EC50 (Zika virus [1]; VeroE6/TMPRSS2): > 16.7 µM; EC90 (Zika virus [1]; VeroE6/TMPRSS2, Maximum measured 69.995 %, Minimum measured 22.891 %): > 16.7 µM; EC50 (dengue virus type 2 [2]; VeroE6/TMPRSS2): > 16.7 µM; EC90 (dengue virus type 2 [2]; VeroE6/TMPRSS2, Baseline response 0 %, Hill slope -0.053, Maximum measured 79.122 %, Maximum response 100 %, Minimum measured 42.376 %, R squared 0.043): > 16.7 µM; EC50 (Zika virus [3]): > 50 µM; EC90 (Zika virus [3]; Hill slope 0.081, Maximum measured 22.254 %, Minimum measured 2.34 %, R squared 0.041): > 50 µM; EC50 (dengue virus type 2 [4]; Vero C1008): > 50 µM; EC90 (dengue virus type 2 [4]; Vero C1008, Maximum measured 132.966 %, Minimum measured 89.816 %): > 50 µM

How did the EC50 (Zika virus [1]; VeroE6/TMPRSS2) turn out when CNC(=O)[C@H](Nc1ccc2c(c1)CNC2)c1cc(Cl)cc2[nH]ncc12 was run?
Its EC50 is greater than 50 µM.

What about the EC90 (Zika virus [1]; VeroE6/TMPRSS2, Maximum measured 122.029 %, Minimum measured 43.627 %) of the same compound?
The EC90 was greater than 50 µM.

What about the EC90 (Zika virus [1]; VeroE6/TMPRSS2, Baseline response 0 %, Hill slope 0.082, Maximum measured 101.866 %, Maximum response 100 %, Minimum measured 51.114 %, R squared 0.025) of the same compound?
The EC90 was greater than 50 µM.

And the EC50 (dengue virus type 2 [2]; VeroE6/TMPRSS2)?
The EC50 was greater than 50 µM.

And the EC90 (dengue virus type 2 [2]; VeroE6/TMPRSS2, Maximum measured 241.837 %, Minimum measured 83.65 %)?
The EC90 was greater than 50 µM.

And the EC50 (Zika virus [3])?
The EC50 was greater than 50 µM.

What about the EC90 (Zika virus [3]; Hill slope 0.1, Maximum measured 6.056 %, Minimum measured 1.325 %, R squared 0.024) of the same compound?
Its EC90 is greater than 50 µM.

And the EC50 (dengue virus type 2 [4]; Vero C1008)?
The EC50 was greater than 50 µM.

And the EC90 (dengue virus type 2 [4]; Vero C1008, Baseline response 0 %, Hill slope 0.363, Maximum measured 102.287 %, Maximum response 100 %, Minimum measured 71.268 %, R squared 0.122)?
The EC90 was greater than 50 µM.
